The values below come from US11566004B2, “Process for the preparation of bromodomain inhibitor” (Celgene Quanticel Research, Inc., priority 2018, dated 2023).

In brackets after ≈: the same amount, converted by molar mass. Where two headings read alike, the source gives them in different places.

A short description of data set [1]: Solubility of bromination starting material, product and impurity in CH2Cl2 (with or without 10% H2SO4). Type of data set: physicochemical. The settings on record: for Solubility in CH2Cl2, 10% H2SO4, 10° C.: CH2Cl2 with 10% H2SO4, 10° C.; for Solubility in CH2Cl2, 10% H2SO4, 20° C.: CH2Cl2 with 10% H2SO4, 20° C.; for Solubility in CH2Cl2, 10% H2SO4, 30° C.: CH2Cl2 with 10% H2SO4, 30° C. The procedure:
This solubility difference is exploited by performing the reaction at a high concentration to drive Compound 5 out of solution once formed, thereby minimizing its ability to react further with the brominating reagent to form Compound 5-a diBr. The reaction is seeded with Compound 5 to initiate its crystallization.

In data set [2] the test system is HL-60, human proleukemia cells. The following applies: HL-60 cells; see U.S. Pat. No. 9,034,900; cited from earlier work.
The test system of data set [3] is NCI-H460, human non-small cell lung cancer cells. The settings on record: see U.S. Pat. No. 9,034,900; cited from earlier work.
Data set [4] concerns Raji, human Burkitts lymphoma cells. The following applies: see U.S. Pat. No. 9,034,900; cited from earlier work.
The next data set addresses bromodomain 4 (BRD4) (Homo sapiens, UniProt O60885). The settings on record: preliminary in vitro studies; see U.S. Pat. No. 9,034,900; cited from earlier work.
Data set [5] can be described thus: Solubility of Compound 1 in process solvents (ICH class solvents, NMP, DMAc, formic acid). Type of data set: physicochemical. The following applies: for solubility: organic solvent or mixture. From the text: The final isolation of Compound 1 requires a polish filtration. For this, the batch must be completely soluble.
The solubility curve of Compound 1 in formic acid-Water is quite steep (see FIG. 7), which enables a volumetrically efficient process.

Data set [6] is described as follows: Solid phase and solution stability of boronic esters. The class given is physicochemical. From the text:
The final bond forming step to Compound 1 is a Suzuki-Miyaura coupling between Compounds 2 and 3, as shown in Scheme 3 below (Norio, M. and Suzuki, A., Chem. Rev., 95(7), 2457-2483 (1995)). […] The pinacolatoboronate of the O-alkyl phenol, Compound 7, had acceptable solid phase stability and could be isolated via crystallization.
This was particularly problematic as the isolation process involved a solvent exchange from 2-MeTHF (2-methyl tetrahydrofuran) to iPrOAc (isopropyl acetate), which is not a fast unit operation on scale.

For `CS(=O)(=O)c1ccc(O)cc1` [Compound 4, 4-(methylsulfonyl)phenol], in data set [1], the “Solubility in CH2Cl2, 10° C.” value stood at 30 mg/mL (≈ 174 mM); the “Solubility in CH2Cl2, 20° C.” value came out at 46 mg/mL (≈ 267 mM); the “Solubility in CH2Cl2, 30° C.” value came to 198 mg/mL (≈ 1150 mM); the “Solubility in CH2Cl2, 10% H2SO4, 10° C.” value amounted to 19 mg/mL (≈ 110 mM). In addition, in data set [1], the “Solubility in CH2Cl2, 10% H2SO4, 20° C.” value amounted to 51 mg/mL (≈ 296 mM) and the “Solubility in CH2Cl2, 10% H2SO4, 30° C.” value is 390 mg/mL (≈ 2260 mM).

The term solubility denotes the concentration that dissolves in the medium under given conditions. In the case of `Cn1cc(-c2cc(S(C)(=O)=O)ccc2OCC2CC2)c2ccccc2c1=O` [Compound 1, 4-[2-(cyclopropylmethoxy)-S-methylsulfonylphenyl]-2-methylisoquinolin-1-one], the “other cancer-related inhibitory activity” value in data set [2], in data set [3] and in data set [4] was “observed” throughout. The BRD4 inhibition entry at bromodomain 4 (BRD4) is “observed”. Also, the “Solubility in almost all ICH Class 3 and common Class 2 (e.g. THF, MeCN) solvents” value in data set [5] (ICH Class 3 and common Class 2 solvents) is “low solubility”. For the same compound, the solubility in data set [5] (N-methyl-2-pyrrolidone (NMP), read-out: Solubility in N-methyl-2-pyrrolidone (NMP)) was more than 50 mg/mL; in data set [5] (dimethylacetamide (DMAc), read-out: Solubility in dimethylacetamide (DMAc)), more than 50 mg/mL; in data set [5] (formic acid, 20° C., read-out: Solubility in formic acid) it was more than 250 mg/mL. For the same compound, the “Solubility in a warm MeCN-water mix” value in data set [5] (warm MeCN-water mix) is “reasonable solubility”.

`CS(=O)(=O)c1ccc(O)c(Br)c1` [Compound 5]: in data set [1], the “Solubility in CH2Cl2, 10° C.” value worked out at 6 mg/mL (≈ 23.9 mM); the “Solubility in CH2Cl2, 20° C.” value was determined as 8 mg/mL (≈ 31.9 mM); the “Solubility in CH2Cl2, 30° C.” value worked out at 20 mg/mL (≈ 79.6 mM); the “Solubility in CH2Cl2, 10% H2SO4, 10° C.” value is 5 mg/mL (≈ 19.9 mM). For the same compound, in data set [1], the “Solubility in CH2Cl2, 10% H2SO4, 20° C.” value was 8 mg/mL (≈ 31.9 mM) and the “Solubility in CH2Cl2, 10% H2SO4, 30° C.” value was 11 mg/mL (≈ 43.8 mM).

`CS(=O)(=O)c1cc(Br)c(O)c(Br)c1` [Compound 5-a diBr]: in data set [1], the “Solubility in CH2Cl2, 10° C.” value turned out to be 5 mg/mL (≈ 15.2 mM); the “Solubility in CH2Cl2, 20° C.” value came out at 7 mg/mL (≈ 21.2 mM); the “Solubility in CH2Cl2, 30° C.” value turned out to be 10 mg/mL (≈ 30.3 mM); the “Solubility in CH2Cl2, 10% H2SO4, 10° C.” value was determined as 5 mg/mL (≈ 15.2 mM). Besides, in data set [1], the “Solubility in CH2Cl2, 10% H2SO4, 20° C.” value was 7 mg/mL (≈ 21.2 mM) and the “Solubility in CH2Cl2, 10% H2SO4, 30° C.” value was 14 mg/mL (≈ 42.4 mM).

As for `CC1(C)OB(c2cc(S(C)(=O)=O)ccc2OCC2CC2)OC1(C)C` [Compound 7], the Solution stability entry in data set [6] (in solution, decomposing primarily to proteodeborylated compound 10) is “poor”. Also, the Solid phase stability result in data set [6] (solid phase) is given as “acceptable”.
